In PMC10247784, “Physiological activation of human and mouse bitter taste receptors by bile acids” (Communications Biology, 2023):

Molecular target: T1, mouse Tas2r117 (Mus musculus, UniProt Q7M715)
T1 construct: expressed in transfected cells; host or cells: HEK293T-Gα16gust44
T1 sequence (Q7M715 1-330): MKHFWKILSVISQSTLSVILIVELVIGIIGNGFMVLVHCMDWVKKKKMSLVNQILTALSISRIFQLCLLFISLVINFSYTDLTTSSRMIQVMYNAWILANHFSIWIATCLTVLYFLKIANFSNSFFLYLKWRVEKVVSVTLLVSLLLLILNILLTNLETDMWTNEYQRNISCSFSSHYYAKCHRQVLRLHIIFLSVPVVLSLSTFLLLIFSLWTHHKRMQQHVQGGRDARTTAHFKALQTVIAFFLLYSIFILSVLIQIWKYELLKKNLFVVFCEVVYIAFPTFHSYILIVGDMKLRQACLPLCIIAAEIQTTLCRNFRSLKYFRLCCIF
Experiment: Calcium imaging assay (FLIPR), HEK293T-Gα16gust44 cells transfected with mouse Tas2r117
Format: cell-based
Details: for Δ F/F: Tas2r117; for RLU: sheet Tas2r117, time trace
Method: This set of bile acids was chosen because of their commercial availability in high purities, their diversity within the class of bile acids and their previous detection and quantitation in human blood. Stock solutions were prepared in DMSO.
As basal growth medium for the HEK293T-Gα16gust44 cell line[17],[59] served Dulbecco’s modified eagle medium (DMEM) (Thermo Fisher Scientific, Darmstadt, Germany) supplemented with 10 % fetal bovine serum (Sigma-Aldrich, Steinheim, Germany), 2 mM L-glutamine (Sigma-Aldrich, Steinheim, Germany), 100 units/ml penicillin (Sigma Aldrich, Steinheim, Germany) and 100 µg/ml streptomycin (Sigma Aldrich, Steinheim, Germany). Growth conditions were 37 °C, 5 % CO2 and saturated air-humidity[60].
HEK293T-Gα16gust44 cells were seeded on poly-D-lysine (10 µg/ml) coated 96-well plates to reach a confluence of 40-60 % the next day. For transient transfection 150 ng of plasmid DNA containing the receptor of interest and 0.3 µl lipofectamine 2000 (Thermo Fisher Scientific, Darmstadt, Germany) per well were used and transfection took place according to the manual of lipofectamine 2000. […] The empty vector DNA (mock) was transfected as negative control[14],[41].
Cells were loaded using the calcium-sensitive fluorescent dye Fluo-4-AM (Abcam, Cambridge, Great Britain) in the presence of 2.5 mM probenecid (Sigma-Aldrich, Steinheim, Germany) the day after transfection[13],[41]. 1 h after loading, cells were washed with C1 buffer using a BioTek Cell Washer, incubated in the dark for half an hour and washed again. For automated agonist application and measurement of fluorescence changes, a FLIPR^TETRA device (Molecular Devices, San José, United States) was used. Viability of cells was tested by application of 100 nM Somatostatin 14 (Bachem, Bubendorf, Switzerland)[42].
Measured data were negative control corrected by subtracting the signal of the mock-transfected cells and exported to Microsoft Excel using the FLIPR software ScreenWorks 4.2. In Microsoft Excel software, standardization of maximum fluorescence intensities to the basal fluorescence and normalization to the buffer-only control was done to calculate the relative fluorescence changes (ΔF/F).
Initial screening experiments performed in duplicate wells were confirmed by at least one replication and representative traces were selected for display. All dose-response relationships were determined by three independent experiments (biological replicates) performed in duplicates (technical replicates). Threshold concentrations, defined as lowest substance concentrations leading to statistically significant elevated fluorescence changes in receptor-transfected cells compared with empty vector-transfected cells, were determined using SigmaPlot with Student’s t-test to evaluate statistical significance (p < 0.01).

## C[C@H](CCC(=O)NCC(=O)O)[C@H]1CC[C@H]2[C@@H]3[C@H](O)C[C@@H]4C[C@H](O)CC[C@]4(C)[C@H]3C[C@H](O)[C@]12C [Glycocholic Acid, glycocholic acid]
conc. 0,01 mM
  Δ F/F: 0.04745
conc. 0,1 mM
  Δ F/F: 0.1208
conc. 0,03 mM
  Δ F/F: 0.08527
conc. 0,3 mM
  Δ F/F: 0.126
conc. 0,0003 mM
  Δ F/F: 0.0009082
conc. 0,001 mM
  Δ F/F: -0.007003
conc. 0,003 mM
  Δ F/F: 0.01508
Time (s) 0
  RLU: 0 RLU
Time (s) 2
  RLU: -1.6624 RLU
Time (s) 4
  RLU: 36.4597 RLU
Time (s) 6
  RLU: 6 RLU
Time (s) 8
  RLU: 8.49 RLU
Time (s) 12
  RLU: -1.574 RLU
Time (s) 14
  RLU: -17.8222 RLU
Time (s) 16
  RLU: -9.405 RLU
Time (s) 18
  RLU: -10.6465 RLU
Time (s) 18.797
  RLU: -31.8582 RLU
Time (s) 20.797
  RLU: -50.2175 RLU
Time (s) 22.797
  RLU: -35.3697 RLU
Time (s) 24.797
  RLU: -21.9519 RLU
Time (s) 26.797
  RLU: 21.3834 RLU
Time (s) 28.797
  RLU: 104.133 RLU
Time (s) 30.797
  RLU: 136.733 RLU
Time (s) 32.797
  RLU: 195.234 RLU
Time (s) 34.797
  RLU: 290.459 RLU
Time (s) 36.797
  RLU: 340.932 RLU
Time (s) 38.797
  RLU: 397.791 RLU
Time (s) 40.797
  RLU: 414.428 RLU
Time (s) 42.797
  RLU: 437.759 RLU
Time (s) 44.797
  RLU: 439.85 RLU
Time (s) 46.797
  RLU: 450.862 RLU
Time (s) 48.797
  RLU: 498.067 RLU
Time (s) 50.797
  RLU: 490.971 RLU
Time (s) 52.797
  RLU: 511.962 RLU
Time (s) 54.797
  RLU: 520.574 RLU
Time (s) 56.797
  RLU: 524.281 RLU
Time (s) 58.797
  RLU: 554.582 RLU
Time (s) 60.797
  RLU: 523.267 RLU
Time (s) 62.797
  RLU: 554.128 RLU
Time (s) 64.797
  RLU: 560.589 RLU
Time (s) 66.797
  RLU: 586.355 RLU
Time (s) 68.797
  RLU: 595.813 RLU
Time (s) 70.797
  RLU: 569.01 RLU
Time (s) 72.797
  RLU: 587.543 RLU
Time (s) 74.797
  RLU: 600.561 RLU
Time (s) 76.797
  RLU: 625.108 RLU
Time (s) 78.797
  RLU: 601.569 RLU
Time (s) 80.797
  RLU: 601.653 RLU
Time (s) 82.797
  RLU: 613.098 RLU
Time (s) 84.797
  RLU: 590.202 RLU
Time (s) 86.797
  RLU: 586.509 RLU
Time (s) 88.797
  RLU: 591.824 RLU
Time (s) 90.797
  RLU: 608.043 RLU
Time (s) 92.797
  RLU: 567.854 RLU
Time (s) 94.797
  RLU: 592.934 RLU
Time (s) 96.797
  RLU: 555.343 RLU
Time (s) 98.797
  RLU: 591.525 RLU
Time (s) 100.797
  RLU: 565.961 RLU
Time (s) 102.797
  RLU: 558.057 RLU
Time (s) 104.797
  RLU: 568.873 RLU
Time (s) 106.797
  RLU: 600.41 RLU
Time (s) 108.797
  RLU: 557.119 RLU
Time (s) 110.797
  RLU: 566.614 RLU
Time (s) 112.797
  RLU: 544.906 RLU
Time (s) 114.797
  RLU: 533.624 RLU
Time (s) 116.797
  RLU: 578.387 RLU
Time (s) 118.797
  RLU: 540.575 RLU
Time (s) 120.797
  RLU: 553.404 RLU
Time (s) 122.797
  RLU: 531.136 RLU
Time (s) 124.797
  RLU: 541 RLU
Time (s) 126.797
  RLU: 530.303 RLU
Time (s) 128.797
  RLU: 505.327 RLU
Time (s) 130.797
  RLU: 508.223 RLU
Time (s) 132.797
  RLU: 529.676 RLU
Time (s) 134.797
  RLU: 490.998 RLU
Time (s) 136.797
  RLU: 480.544 RLU
Time (s) 137.562
  RLU: 494.151 RLU
Time (s) 143.578
  RLU: 475.248 RLU
Time (s) 149.578
  RLU: 448.977 RLU
Time (s) 155.578
  RLU: 429.963 RLU
Time (s) 161.578
  RLU: 410.536 RLU
Time (s) 167.578
  RLU: 411.276 RLU
Time (s) 173.578
  RLU: 378.737 RLU
Time (s) 179.578
  RLU: 356.849 RLU
Time (s) 191.578
  RLU: 338.845 RLU
Time (s) 197.578
  RLU: 316.205 RLU
Time (s) 209.578
  RLU: 296.441 RLU
Time (s) 221.578
  RLU: 181.834 RLU
Time (s) 233.578
  RLU: 175.03 RLU
Time (s) 239.578
  RLU: 155.758 RLU
Time (s) 245.578
  RLU: 143.461 RLU
Time (s) 293.578
  RLU: 87.8538 RLU
Time (s) 299.578
  RLU: 79.8727 RLU
Time (s) 305.578
  RLU: 78.6198 RLU
Time (s) 311.578
  RLU: 69.0671 RLU
Time (s) 317.578
  RLU: 91.9062 RLU
Time (s) 323.578
  RLU: 87.6118 RLU
Time (s) 329.578
  RLU: 65.9416 RLU
Time (s) 335.578
  RLU: 41.2589 RLU
Time (s) 341.578
  RLU: 94.1086 RLU
Time (s) 347.578
  RLU: 67.2353 RLU
Time (s) 353.578
  RLU: 54.4225 RLU
Time (s) 359.578
  RLU: 85.0918 RLU
Calculated where receptor saturation was reached, read-out: EC50 Tas2r117
  EC50: 16 ± 2.5 µM
P < 0.01 vs empty vector
  Activation threshold concentration Tas2r117: 3 µM
